According to PubChem BioAssay (NCI):
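Grown in 96-well plates, cells were treated for 48 hours with each compound at five concentrations. Insufficient inhibition: endpoint recorded as highest concentration tested. TGI is the concentration that stops growth completely.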

Columns and labels:
Assay in all cases: growth of human tumour cells (NCI), 48 h
[1] = test system: NCI-H23 lung
[2] = test system: SK-MEL-5 melanoma
[3] = test system: MOLT-4 leukemia
[4] = test system: SNB-19 CNS
[5] = test system: OVCAR-5 ovarian
[6] = test system: SK-MEL-2 melanoma
[7] = test system: SNB-75 CNS
[8] = test system: SR leukemia
[9] = test system: OVCAR-4 ovarian
[10] = test system: LOX IMVI melanoma
[11] = test system: RPMI-8226 leukemia
[12] = test system: CCRF-CEM leukemia
[13] = test system: SNB-78 CNS
[14] = test system: ACHN renal
[15] = test system: HCC-2998 colon
[16] = test system: TK-10 renal
[17] = test system: UO-31 renal
[18] = test system: COLO 205 colon
[19] = test system: UACC-62 melanoma
[20] = test system: DLD-1 colon
[21] = test system: RXF 393 renal
[22] = test system: OVCAR-3 ovarian
[23] = test system: SN12C renal
[24] = test system: SF-539 CNS
[25] = test system: U251 CNS
[26] = test system: NCI-H522 lung
[27] = test system: HOP-92 NSCLC
[28] = test system: EKVX NSCLC
[29] = test system: IGROV1 ovarian
[30] = test system: M19-MEL melanoma
[31] = test system: DMS 114 small cell lung
[32] = test system: LXFL 529 NSCLC
[33] = test system: 786-0 renal
[34] = test system: SW-620 colon
[35] = test system: NCI-H460 lung
[36] = test system: SK-MEL-28 melanoma
[37] = test system: HOP-62 NSCLC
[38] = test system: NCI-H226 lung
[39] = test system: M14 melanoma
[40] = test system: K-562 leukemia
[41] = test system: HCT-116 colon
[42] = test system: HOP-18 NSCLC
[43] = test system: SF-268 CNS
[44] = test system: CAKI-1 renal
[45] = test system: DMS 273 small cell lung
[46] = test system: KM12 colon
[47] = test system: SF-295 CNS
[48] = test system: HCT-15 colon
[49] = test system: XF 498 CNS
[50] = test system: OVCAR-8 ovarian
[51] = test system: MALME-3M melanoma
[52] = test system: SK-OV-3 ovarian
[53] = test system: UACC-257 melanoma
[54] = test system: KM20L2 colon
[55] = test system: A549 NSCLC
[56] = test system: HL-60(TB) leukemia
[57] = test system: HT29 colon
[58] = test system: A498 renal
[59] = test system: RXF-631 renal

## c1ccc(-c2csc3c4ccccc4c4ccccc4[n+]23)cc1
[1]
  TGI: 11.9 µM
[2]
  TGI: 2.86 µM
[3]
  TGI: > 25.5 µM
[4]
  TGI: 7.52 µM
[5]
  TGI: 35.8 µM
[6]
  TGI: 7.71 µM
[7]
  TGI: 6.98 µM
[8]
  TGI: > 100 µM
[9]
  TGI: 18.3 µM
[10]
  TGI: 16.9 µM
[11]
  TGI: > 100 µM
[12]
  TGI: > 38.5 µM
[13]
  TGI: 11.1 µM
[14]
  TGI: 30.6 µM
[15]
  TGI: 13 µM
[16]
  TGI: 43.6 µM
[17]
  TGI: 31.8 µM
[18]
  TGI: 7.73 µM
[19]
  TGI: 5.27 µM
[20]
  TGI: 25.4 µM
[21]
  TGI: 26.7 µM
[22]
  TGI: 5.29 µM
[23]
  TGI: 11.2 µM
[24]
  TGI: 14.8 µM
[25]
  TGI: 13.8 µM
[26]
  TGI: 7.12 µM
[27]
  TGI: 24.9 µM
[28]
  TGI: 31.8 µM
[29]
  TGI: 31.3 µM
[30]
  TGI: 4.22 µM
[31]
  TGI: 4.89 µM
[32]
  TGI: 16.6 µM
[33]
  TGI: 21 µM
[34]
  TGI: 17.4 µM
[35]
  TGI: 10.2 µM
[36]
  TGI: 7.96 µM
[37]
  TGI: 20.7 µM
[38]
  TGI: 11.5 µM
[39]
  TGI: 22 µM
[40]
  TGI: > 30.7 µM
[41]
  TGI: 12.1 µM
[42]
  TGI: 49.6 µM
[43]
  TGI: 9.65 µM
[44]
  TGI: > 36 µM
[45]
  TGI: 4.58 µM
[46]
  TGI: 3.36 µM
[47]
  TGI: 16 µM
[48]
  TGI: > 78.7 µM
[49]
  TGI: 5.46 µM
[50]
  TGI: 17.9 µM
[51]
  TGI: 3.21 µM
[52]
  TGI: 38.5 µM
[53]
  TGI: 3.27 µM
[54]
  TGI: 20.6 µM
[55]
  TGI: 19.5 µM
[56]
  TGI: > 35 µM
[57]
  TGI: 20.6 µM
[58]
  TGI: 33.4 µM

## O=C1C[C@H]2CCCN2[C@@H](c2ccccc2)C1
[1]
  TGI: > 100 µM
[2]
  TGI: > 100 µM
[3]
  TGI: > 100 µM
[4]
  TGI: > 100 µM
[5]
  TGI: > 100 µM
[6]
  TGI: > 100 µM
[7]
  TGI: > 100 µM
[9]
  TGI: > 100 µM
[10]
  TGI: > 100 µM
[11]
  TGI: > 100 µM
[12]
  TGI: > 100 µM
[13]
  TGI: > 100 µM
[14]
  TGI: > 100 µM
[15]
  TGI: > 100 µM
[16]
  TGI: > 100 µM
[17]
  TGI: > 100 µM
[18]
  TGI: > 100 µM
[19]
  TGI: > 100 µM
[21]
  TGI: > 100 µM
[22]
  TGI: > 100 µM
[23]
  TGI: > 100 µM
[24]
  TGI: > 100 µM
[25]
  TGI: > 100 µM
[26]
  TGI: > 100 µM
[27]
  TGI: > 100 µM
[59]
  TGI: > 100 µM
[28]
  TGI: > 100 µM
[29]
  TGI: > 100 µM
[30]
  TGI: > 100 µM
[32]
  TGI: > 100 µM
[33]
  TGI: > 100 µM
[34]
  TGI: > 100 µM
[35]
  TGI: > 100 µM
[36]
  TGI: > 100 µM
[37]
  TGI: > 100 µM
[38]
  TGI: > 100 µM
[39]
  TGI: > 100 µM
[40]
  TGI: > 100 µM
[41]
  TGI: > 100 µM
[42]
  TGI: > 100 µM
[43]
  TGI: > 100 µM
[44]
  TGI: > 100 µM
[45]
  TGI: > 100 µM
[46]
  TGI: > 100 µM
[47]
  TGI: > 100 µM
[48]
  TGI: > 100 µM
[49]
  TGI: > 100 µM
[50]
  TGI: > 100 µM
[51]
  TGI: > 100 µM
[52]
  TGI: > 100 µM
[53]
  TGI: > 100 µM
[54]
  TGI: > 100 µM
[55]
  TGI: > 100 µM
[56]
  TGI: > 100 µM
[57]
  TGI: > 100 µM
[58]
  TGI: > 100 µM

## CC(=O)OCc1c2ccccc2c(C)c2c1cc(F)c1ccccc12
[1]
  TGI: 68.4 µM
[2]
  TGI: 69.6 µM
[3]
  TGI: 32.6 µM
[4]
  TGI: 82.4 µM
[5]
  TGI: > 100 µM
[6]
  TGI: 35.2 µM
[7]
  TGI: 58.4 µM
[8]
  TGI: > 100 µM
[9]
  TGI: 77.9 µM
[10]
  TGI: 46.3 µM
[12]
  TGI: 40.5 µM
[13]
  TGI: 59.8 µM
[14]
  TGI: 46.9 µM
[15]
  TGI: 72.3 µM
[16]
  TGI: > 100 µM
[17]
  TGI: > 100 µM
[18]
  TGI: 36.4 µM
[19]
  TGI: 43.6 µM
[20]
  TGI: 64.3 µM
[21]
  TGI: 57.9 µM
[22]
  TGI: 57.5 µM
[23]
  TGI: 33.8 µM
[24]
  TGI: 59.4 µM
[25]
  TGI: 58.8 µM
[26]
  TGI: 25.6 µM
[27]
  TGI: > 100 µM
[59]
  TGI: 63 µM
[28]
  TGI: > 100 µM
[29]
  TGI: 75.2 µM
[31]
  TGI: > 100 µM
[32]
  TGI: > 100 µM
[33]
  TGI: 82.3 µM
[34]
  TGI: 67.3 µM
[36]
  TGI: > 100 µM
[37]
  TGI: > 100 µM
[38]
  TGI: > 100 µM
[39]
  TGI: > 100 µM
[40]
  TGI: 78.9 µM
[41]
  TGI: > 100 µM
[42]
  TGI: > 100 µM
[43]
  TGI: 85.3 µM
[44]
  TGI: 98 µM
[45]
  TGI: 26.4 µM
[46]
  TGI: > 100 µM
[47]
  TGI: > 100 µM
[49]
  TGI: 45.2 µM
[50]
  TGI: 47.4 µM
[51]
  TGI: > 100 µM
[52]
  TGI: > 100 µM
[53]
  TGI: > 100 µM
[54]
  TGI: 87 µM
[55]
  TGI: > 100 µM
[56]
  TGI: 67.8 µM
[57]
  TGI: 42.4 µM
[58]
  TGI: > 100 µM
